In US8952024B2, “Herbicidal pyrimidone derivatives” (E I du Pont de Nemours and Company, priority 2009, dated 2015):

Assays:
Format in all cases: in vivo
[1] = tested on: pigweed (Amaranthus retroflexus); test: Test A pre-/postemergence plant response
Summary of the method: (§1)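 Visually rated 0–100 injury (100 = complete control) versus untreated plants, ~10 days in greenhouse. Application pre- (soil spray, loam/sand) and postemergence (2–10 cm, 1–2 leaf stage), same timepoint.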

[2] = tested on: barnyardgrass (Echinochloa crus-galli); test: Test A pre-/postemergence plant response
Summary of the method: as §1

[3] = tested on: giant foxtail (Setaria faberii); test: Test A pre-/postemergence plant response
Summary of the method: as §1

[4] = tested on: morningglory (Ipomoea spp.); test: Test A pre-/postemergence plant response
Summary of the method: as §1

[5] = tested on: large crabgrass (Digitaria sanguinalis); test: Test A pre-/postemergence plant response
Summary of the method: as §1

[6] = tested on: wheat (Triticum aestivum); test: Test A pre-/postemergence plant response
Summary of the method: as §1

[7] = tested on: velvetleaf (Abutilon theophrasti); test: Test A pre-/postemergence plant response
Summary of the method: as §1

[8] = tested on: corn (Zea mays); test: Test A pre-/postemergence plant response
Summary of the method: as §1

[9] = tested on: ducksalad (Heteranthera limosa); test: Test B flooded paddy test; conditions: for Plant response rating, Ducksalad: Flood (flooded paddy test), 13 to 15 days
Summary of the method: (§2)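 Plants were grown to the 2-leaf stage, then pots were flooded to 3 cm above the soil and compounds were applied directly into the paddy water. That depth was held throughout. After 13 to 15 days in a greenhouse, injury was visually rated against controls on a 0–100 scale.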

[10] = tested on: rice (Oryza sativa); test: Test B flooded paddy test; conditions: for Plant response rating, Rice: Flood (flooded paddy test), 13 to 15 days
Summary of the method: as §2

[11] = tested on: barnyardgrass (Echinochloa crus-galli); test: Test B flooded paddy test; conditions: for Plant response rating, Barnyardgrass: Flood (flooded paddy test), 13 to 15 days
Summary of the method: as §2

[12] = tested on: umbrella sedge (Cyperus difformis); test: Test B flooded paddy test; conditions: for Plant response rating, Sedge, Umbrella: Flood (flooded paddy test), 13 to 15 days
Summary of the method: as §2

[13] = tested on: winter barley (Hordeum vulgare); test: Test B postemergence plant response; conditions: Postemergence
Summary of the method: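 Visual ratings from 0 (no effect) to 100 (complete control), made against controls 13–15 days after treatment, kept in a greenhouse. Compounds were applied postemergence to potted plants at the 1- to 4-leaf stage (2–18 cm).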

[14] = Postemergence, 125 g ai/ha, visual injury, 0 to 100 scale (0 no effect, 100 complete control), approx. ten days
[15] = Postemergence, 500 g ai/ha, 0 to 100 scale, 0 = no effect, 100 = complete control, approx. ten days
[16] = Preemergence, 125 g ai/ha, 0 to 100 scale, 0 = no effect, 100 = complete control
[17] = Preemergence, 500 g ai/ha, visual injury, 0 to 100 scale (0 no effect, 100 complete control), approx. ten days
[18] = 250 g ai/ha, flooded paddy test, visual rating on 0 to 100 scale (0 no effect, 100 complete control) after 13 to 15 days
[19] = 31 g ai/ha, scale of 0 to 100 where 0 is no effect and 100 is complete control
[20] = 62 g ai/ha, scale 0 to 100, 0 is no effect, 100 is complete control
[21] = 125 g ai/ha, scale 0 to 100, 0 is no effect, 100 is complete control

## 5-[(2-hydroxy-6-oxo-1-cyclohexen-1-yl)carbonyl]-3-(2-methoxyethyl)-2-(3-thienyl)-4(3H)-pyrimidinone [Compound 97]
[1]; [14]
  Pigweed plant response rating: 100
[1]; [15]
  Plant response rating, Pigweed: 100
[1]; [16]
  Plant response rating, Pigweed: 100
[1]; [17]
  Plant response rating, Pigweed: 100
[2]; [14]
  Barnyardgrass plant response rating: 90
[2]; [15]
  Plant response rating, Barnyardgrass: 90
[2]; [16]
  Plant response rating, Barnyardgrass: 30
[2]; [17]
  Plant response rating, Barnyardgrass: 90
[3]; [14]
  Foxtail, Giant plant response rating: 90
[3]; [15]
  Plant response rating, Foxtail, Giant: 100
[3]; [16]
  Plant response rating, Foxtail, Giant: 70
[3]; [17]
  Plant response rating, Foxtail, Giant: 100
[4]; [14]
  Morningglory plant response rating: 100
[4]; [15]
  Plant response rating, Morningglory: 100
[4]; [16]
  Plant response rating, Morningglory: 10
[4]; [17]
  Plant response rating, Morningglory: 90
[5]; [14]
  Crabgrass, Large plant response rating: 90
[5]; [15]
  Plant response rating, Crabgrass, Large: 100
[5]; [16]
  Plant response rating, Crabgrass, Large: 90
[5]; [17]
  Plant response rating, Crabgrass, Large: 100
[6]; [14]
  Wheat plant response rating: 40
[6]; [15]
  Plant response rating, Wheat: 60
[6]; [16]
  Plant response rating, Wheat: 0
[6]; [17]
  Plant response rating, Wheat: 50
[7]; [14]
  Velvetleaf plant response rating: 100
[7]; [15]
  Plant response rating, Velvetleaf: 100
[7]; [16]
  Plant response rating, Velvetleaf: 90
[7]; [17]
  Plant response rating, Velvetleaf: 100
[8]; [14]
  Corn plant response rating: 30
[8]; [15]
  Plant response rating, Corn: 90
[8]; [16]
  Plant response rating, Corn: 0
[8]; [17]
  Plant response rating, Corn: 0
[9]; [18]
  Plant response rating, Flood, Ducksalad: 80
[9]; [19]
  Plant response rating, Ducksalad: 0
[9]; [20]
  Plant response rating, Ducksalad: 20
[9]; [21]
  Plant response rating, Ducksalad: 75
[10]; [18]
  Plant response rating, Flood, Rice: 0
[10]; [19]
  Plant response rating, Rice: 0
[10]; [20]
  Plant response rating, Rice: 0
[10]; [21]
  Plant response rating, Rice: 0
[11]; [18]
  Plant response rating, Flood, Barnyardgrass: 0
[11]; [19]
  Plant response rating, Barnyardgrass: 0
[11]; [20]
  Plant response rating, Barnyardgrass: 0
[11]; [21]
  Plant response rating, Barnyardgrass: 0
[12]; [18]
  Plant response rating, Flood, Sedge, Umbrella: 55
[12]; [19]
  Plant response rating, Sedge, Umbrella: 0
[12]; [20]
  Plant response rating, Sedge, Umbrella: 40
[12]; [21]
  Plant response rating, Sedge, Umbrella: 55
[13]; 31 g ai/ha, scale 0 to 100 (0 no effect, 100 complete control)
  Plant response rating, Barley: 0
[13]; 62 g ai/ha, scale 0 (no effect) to 100 (complete control), 13 to 15 days
  Plant response rating, Barley: 0
[13]; 125 g ai/ha, scale 0 to 100 (0 no effect, 100 complete control), 13 to 15 days
  Plant response rating, Barley: 0
[13]; 250 g ai/ha, scale 0 to 100
  Barley plant response rating: 5
